Measured values: PubChem BioAssay (NCI)
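Protocol summary: plate cells (96-well), add compound at 5 concentrations, incubate 48 h, interpolate endpoints linearly. At the TGI there is no net growth.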

Experiments:
Assay in all cases: DTP human tumour cell line panel, 48 h
786-0 renal = test system: 786-0 renal
A498 renal = test system: A498 renal
A549 NSCLC = test system: A549 NSCLC
ACHN renal = test system: ACHN renal
BT-549 breast = test system: BT-549 breast
CAKI-1 renal = test system: CAKI-1 renal
CCRF-CEM leukemia = test system: CCRF-CEM leukemia
COLO 205 colon = test system: COLO 205 colon
DU-145 prostate = test system: DU-145 prostate
EKVX NSCLC = test system: EKVX NSCLC
HCC-2998 colon = test system: HCC-2998 colon
HCT-116 colon = test system: HCT-116 colon
HCT-15 colon = test system: HCT-15 colon
HOP-62 NSCLC = test system: HOP-62 NSCLC
HOP-92 NSCLC = test system: HOP-92 NSCLC
HS 578T breast = test system: HS 578T breast
HT29 colon = test system: HT29 colon
IGROV1 ovarian = test system: IGROV1 ovarian
K-562 leukemia = test system: K-562 leukemia
KM12 colon = test system: KM12 colon
LOX IMVI melanoma = test system: LOX IMVI melanoma
M14 melanoma = test system: M14 melanoma
MALME-3M melanoma = test system: MALME-3M melanoma
MCF7 breast = test system: MCF7 breast
MDA-MB-231 breast = test system: MDA-MB-231 breast
MDA-MB-435 = test system: MDA-MB-435
MDA-N = test system: MDA-N
MOLT-4 leukemia = test system: MOLT-4 leukemia
NCI-H226 lung = test system: NCI-H226 lung
NCI-H23 lung = test system: NCI-H23 lung
NCI-H460 lung = test system: NCI-H460 lung
NCI-H522 lung = test system: NCI-H522 lung
NCI/ADR-RES ovarian = test system: NCI/ADR-RES ovarian
OVCAR-3 ovarian = test system: OVCAR-3 ovarian
OVCAR-4 ovarian = test system: OVCAR-4 ovarian
OVCAR-5 ovarian = test system: OVCAR-5 ovarian
OVCAR-8 ovarian = test system: OVCAR-8 ovarian
PC-3 prostate = test system: PC-3 prostate
RPMI-8226 leukemia = test system: RPMI-8226 leukemia
RXF 393 renal = test system: RXF 393 renal
SF-268 CNS = test system: SF-268 CNS
SF-295 CNS = test system: SF-295 CNS
SF-539 CNS = test system: SF-539 CNS
SK-MEL-2 melanoma = test system: SK-MEL-2 melanoma
SK-MEL-28 melanoma = test system: SK-MEL-28 melanoma
SK-MEL-5 melanoma = test system: SK-MEL-5 melanoma
SK-OV-3 ovarian = test system: SK-OV-3 ovarian
SN12C renal = test system: SN12C renal
SNB-19 CNS = test system: SNB-19 CNS
SNB-75 CNS = test system: SNB-75 CNS
SR leukemia = test system: SR leukemia
SW-620 colon = test system: SW-620 colon
T-47D breast = test system: T-47D breast
TK-10 renal = test system: TK-10 renal
U251 CNS = test system: U251 CNS
UACC-257 melanoma = test system: UACC-257 melanoma
UACC-62 melanoma = test system: UACC-62 melanoma
UO-31 renal = test system: UO-31 renal

CC(C)=CCC[C@@H](C)C1=C(Nc2ccccc2F)C(O)=C(C)C(=O)C1=O
TGI (786-0 renal): > 100 µM
TGI (A498 renal): > 43.9 µM
TGI (A549 NSCLC): > 44.9 µM
TGI (ACHN renal): 14.3 µM
TGI (BT-549 breast): > 100 µM
TGI (CAKI-1 renal): 34.2 µM
TGI (CCRF-CEM leukemia): 3.9 µM
TGI (COLO 205 colon): 12.4 µM
TGI (DU-145 prostate): > 100 µM
TGI (EKVX NSCLC): > 100 µM
TGI (HCC-2998 colon): 38.1 µM
TGI (HCT-116 colon): > 35.7 µM
TGI (HCT-15 colon): > 70.6 µM
TGI (HOP-62 NSCLC): > 72.1 µM
TGI (HOP-92 NSCLC): > 69.9 µM
TGI (HS 578T breast): 57.1 µM
TGI (HT29 colon): 24.3 µM
TGI (IGROV1 ovarian): > 39.1 µM
TGI (K-562 leukemia): > 100 µM
TGI (KM12 colon): 19.4 µM
TGI (LOX IMVI melanoma): > 100 µM
TGI (M14 melanoma): > 100 µM
TGI (MALME-3M melanoma): 29.5 µM
TGI (MCF7 breast): 81.6 µM
TGI (MDA-MB-231 breast): > 100 µM
TGI (MDA-MB-435): > 100 µM
TGI (MDA-N): > 100 µM
TGI (MOLT-4 leukemia): > 67.8 µM
TGI (NCI-H226 lung): 24 µM
TGI (NCI-H23 lung): 36.1 µM
TGI (NCI-H460 lung): > 100 µM
TGI (NCI-H522 lung): 17.1 µM
TGI (NCI/ADR-RES ovarian): > 23.8 µM
TGI (OVCAR-3 ovarian): > 100 µM
TGI (OVCAR-4 ovarian): > 100 µM
TGI (OVCAR-5 ovarian): > 100 µM
TGI (OVCAR-8 ovarian): > 30.2 µM
TGI (PC-3 prostate): > 100 µM
TGI (RPMI-8226 leukemia): > 100 µM
TGI (RXF 393 renal): > 64.1 µM
TGI (SF-268 CNS): > 100 µM
TGI (SF-295 CNS): > 31.5 µM
TGI (SF-539 CNS): 59.8 µM
TGI (SK-MEL-2 melanoma): 42.1 µM
TGI (SK-MEL-28 melanoma): > 64.3 µM
TGI (SK-MEL-5 melanoma): 14.8 µM
TGI (SK-OV-3 ovarian): 73.3 µM
TGI (SN12C renal): > 100 µM
TGI (SNB-19 CNS): > 100 µM
TGI (SNB-75 CNS): > 100 µM
TGI (SR leukemia): > 100 µM
TGI (SW-620 colon): > 69.1 µM
TGI (T-47D breast): 64.1 µM
TGI (TK-10 renal): > 100 µM
TGI (U251 CNS): > 31.6 µM
TGI (UACC-257 melanoma): > 100 µM
TGI (UACC-62 melanoma): 22.6 µM
TGI (UO-31 renal): 25.2 µM
